Data from PMC7555839 (Frontiers in Microbiology, 2020).
Where two headings read alike, the source gives them in different places.

Legend:
[1] = system: E. coli APEC O2 (in house strain); assay: Broth microdilution (MIC/MBC); type: cell-based; conditions: Escherichia coli; APEC O2, veterinary clinical isolate
S. aureus USA300 JE2 [2] = assay: Growth and viability assay; type: cell-based, Staphylococcus aureus; conditions: for Bacterial concentration after 24 h: 0.5 × MIC
Procedure: Growth and viability assays were performed according to a previously published method ([Thorsing et al., 2013]), with some modifications. In general, the assay was conducted over a 24 h period in a 37°C heating bath with shaking, using S. aureus USA300 JE2 as test strain. […] The culture was diluted 1:100 in BHI broth and grown to early exponential phase (OD600 0.20). […] This culture was grown to OD600 0.20 where sample zero was collected. […] 100 μl samples were serially diluted, spread on MHA plates, and incubated at 37°C for 20–24 h followed by successive counting.
Data were statically analyzed and visualized using RStudio v3.6.3 ([R Core Team, 2020]) and Microsoft excel. In general, the values reflecting the bacterial concentration (CFU/ml) were transformed into a logarithmic scale. In the growth and viability assay, the mean numbers of the bacterial concentrations from the triplicates were plotted against time and standard deviations shown as error bars. To investigate differences in bacterial concentration between treatment groups in the in vivo assay, multiple group comparisons were performed using ANOVA and P < 0.05 considered significant. The data was visualized in a standard box plot.

[3] = system: Cutibacterium acnes P10140156 (in house strain); assay: Broth microdilution (MIC/MBC), anaerobic; type: cell-based
S. aureus ATCC-BAA = assay: Agar dilution MIC; type: cell-based; conditions: Staphylococcus aureus, MHA plates
Procedure: (§1) Initially, MHA plates with JBC 1847 concentrations ranging from 0.5 to 8 mg/L were made and bacterial inoculum was prepared as previously described, was added to each plate. […] The MIC values for the two S. aureus strains were both determined to 4 mg/L and therefore, TSA plates with a JBC 1847 concentration of 2 mg/L were prepared to ensure the strains were able to grow. One dish of each type of antibiotic was added to a single TSA plate with JBC 1847 and a control plate containing only TSA and inoculated as previously described. Two plates containing only 2 mg/L JBC 1847 and bacterial inoculum for each strain served as a positive control. After incubation, clearing zones were measured and compared between control and JBC 1847 plates.

S. aureus USA300 JE2 [4] = assay: Agar dilution MIC; type: cell-based; conditions: Staphylococcus aureus, MHA plates
Procedure: as §1

[5] = system: Salmonella typhimurium TA1535
[6] = system: three Gram-negative pathogenic bacteria; assay: Broth microdilution, summary over Gram-negative isolates; type: cell-based
[7] = system: five bacterial tester strains; assay: Ames test, overall evaluation (five tester strains); type: cell-based; conditions: in general
Excerpt: In this reverse mutation assay, five bacterial tester strains recommended by The Organization for Economic Cooperation and Development (OECD), were exposed to JBC 1847 in presence and absence of a metabolic activation system (S9) obtained from rat liver extract ([Maron and Ames, 1983]; [Levy et al., 2019]). The characteristics of the four Salmonella typhimurium mutants (TA98, TA100, TA1535, TA1537) and a single Escherichia coli mutant [wp2 (pKM101)] have been described by [Mortelmans and Zeiger (2000)] and [Levy et al. (2019)]. Prior to testing, the genotypes of all strains were confirmed as previously described ([Mortelmans and Zeiger, 2000]), and JBC 1847 was tested in various concentrations (1.5, 4, 10, 25, 64, 160, 400, and 1,000 μg/well) whereas DMSO served as negative control. As positive controls, five mutagenic compounds were applied in various concentrations (Supplementary Material). The Ames test was performed as described in Supplementary Material where acceptance criteria for the test results can also be found. To evaluate the test results, the mutagenicity ratio (MR) was calculated and interpreted as in previous studies ([Pah and Lakhani, 2012]; [Wang et al., 2018]). The MR was calculated as MR = x/xn. Here, x was the number of reverse mutated colonies exposed to JCB 1847 whereas xn was the number of reverse mutated colonies in the negative controls. […]

[8] = system: S. aureus CC398 in house strain; assay: Broth microdilution with 20% human serum; type: cell-based, Staphylococcus aureus
Procedure: (§2) In addition, whether serum proteins affected the activity of JBC 1847 against three S. aureus strains (USA300 JE2, ATCC BAA-1556 and CC398 in house strain) was investigated. Broth microdilution assays analog to previously described, with a 20% human serum (Sigma-Aldrich, Brøndby, Denmark) concentration were carried for three S. aureus strains (Table 1). MIC and MBC values were determined as previously described.

S. aureus ATCC BAA-1556 = assay: Broth microdilution with 20% human serum; type: cell-based, Staphylococcus aureus
Procedure: as §2

S. aureus USA300 JE2 [9] = assay: Broth microdilution with 20% human serum; type: cell-based, Staphylococcus aureus
Procedure: as §2

Proteus vulgaris JEO1 = assay: Broth microdilution (MIC/MBC); type: cell-based; conditions: JEO1, veterinary clinical isolate
[10] = 20% human serum vs assay without serum
[11] = Staphylococcus aureus, 20% human serum
[12] = Staphylococcus aureus, ATCCBAA1556, 20% human serum

CC(C)=CCCC(C)CC[N+](C)(C)CCCN1c2ccccc2Sc2ccccc21 (stereo not drawn) [JBC 1847]
MBC [1]: 16 µg/mL | MIC [1]: 16 µg/mL | Bacterial concentration after 24 h (S. aureus USA300 JE2 [2]; trial 1): approximately 10^3 CFU/ml | Bacterial concentration after 24 h (S. aureus USA300 JE2 [2]; trial 2): 0 CFU/ml | Bacterial concentration after 24 h (S. aureus USA300 JE2 [2]; trial 3, increase after 6 h): reached the same level as the control curve | Viable bacterial cells after 30 min (S. aureus USA300 JE2 [2]; 4 × MIC, all three replicates): no viable bacterial cells | Bacterial count after 24 h (S. aureus USA300 JE2 [2]; MIC concentration, trial 3): approximately 10^3 CFU/ml | Bacterial concentration at 24 h (S. aureus USA300 JE2 [2]; MIC concentration, trials 1 and 2): 0 CFU/ml | MIC (S. aureus USA300 JE2 [2]; Staphylococcus aureus, USA300, 100 ml BHI broth flasks, culture at OD600 0.20, 37°C shaking 20–22 h, read-out: MIC (visually determined)): 4 µg/mL | MBC ([3]; BHI agar with 1% L-cystein): 0.5 to 1 µg/mL | MIC ([3]; BHI with 1% L-cysteine): 0.5 to 1 µg/mL | MIC (S. aureus ATCC-BAA): 4 µg/mL | MIC (S. aureus USA300 JE2 [4]): 4 µg/mL | Mean number of reverse mutated colonies ([5]; TA1535, + S9, 1.5 μg/well): 24.33 ± 3.21 | Mean number of reverse mutated colonies ([5]; TA1535, + S9, 4 μg/well): 26.67 ± 2.08 | Mean number of reverse mutated colonies ([5]; TA1535, + S9, 10 μg/well): 18.00 ± 5.57 | Mean number of reverse mutated colonies ([5]; TA1535, + S9, 64 μg/well): 0.0 | Mean number of reverse mutated colonies ([5]; TA1535, −S9, 1.5 μg/well): 24.33 ± 3.21 | Mean number of reverse mutated colonies ([5]; TA1535, −S9, 4 μg/well): 26.67 ± 2.08 | Mean number of reverse mutated colonies ([5]; TA1535, −S9, 10 μg/well): 18.00 ± 5.57 | Mean number of reverse mutated colonies ([5]; TA1535, −S9, 25 μg/well): 0.0 | Mean number of reverse mutated colonies ([5]; TA1535, −S9, 64 μg/well): 0.0 | MIC values (range over isolates) [6]: 8 to 32 µg/mL | Mutagenicity ratio (MR) ([7]; all strains, MR ≥ 2 interpreted as positive): < 2 | Ames test result ([7]; presence and absence of S9): non-mutagenic | Increase in MBC with human serum [8, 10]: 128 fold | Increase in MIC with human serum [8, 10]: 128 fold | MBC [8, 11]: 64 µg/mL | MIC [8, 11]: 64 µg/mL | Increase in MBC with human serum (S. aureus ATCC BAA-1556; [10]): 128 fold | Increase in MIC with human serum (S. aureus ATCC BAA-1556; [10]): 128 fold | MBC (S. aureus ATCC BAA-1556; [12]): 64 µg/mL | MIC (S. aureus ATCC BAA-1556; [12]): 64 µg/mL | Increase in MBC with human serum (S. aureus USA300 JE2 [9]; [10]): 128 fold | Increase in MIC with human serum (S. aureus USA300 JE2 [9]; [10]): 128 fold | MBC (S. aureus USA300 JE2 [9]; [11]): 64 µg/mL | MIC (S. aureus USA300 JE2 [9]; [11]): 64 µg/mL | MBC (Proteus vulgaris JEO1): 32 µg/mL | MIC (Proteus vulgaris JEO1): 32 µg/mL
